# Measurements taken from patent US7022716B2, “Cyclic amine phenyl beta-3 adrenergic receptor agonists” (Wyeth, priority 2000, dated 2006).
# Target: T1, human β3 adrenergic receptor (Homo sapiens, UniProt P13945)
# T1 construct: Full length β3 AR clones (402 amino acids) containing the last 6 amino acids of hβ3-AR are prepared; expressed in transfected cells; host or cells: CHO (Chinese hamster ovary) cells
# Experiment: cAMP (SPA) response in CHO cells transfected with human β3 adrenergic receptor
# Type: cell-based
# Design: key: fraction of maximal isoproterenol (10^-5 M) response
# Settings: maximal response relative to maximal response of isoproterenol at 10^-5 M
# How it was run: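 Reactions were stopped with 0.2N HCl and neutralised, and cAMP was measured by SPA. Activity is expressed as percent of the maximal 10^−5 M isoproterenol response.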
# T1 sequence (P13945 whole entry): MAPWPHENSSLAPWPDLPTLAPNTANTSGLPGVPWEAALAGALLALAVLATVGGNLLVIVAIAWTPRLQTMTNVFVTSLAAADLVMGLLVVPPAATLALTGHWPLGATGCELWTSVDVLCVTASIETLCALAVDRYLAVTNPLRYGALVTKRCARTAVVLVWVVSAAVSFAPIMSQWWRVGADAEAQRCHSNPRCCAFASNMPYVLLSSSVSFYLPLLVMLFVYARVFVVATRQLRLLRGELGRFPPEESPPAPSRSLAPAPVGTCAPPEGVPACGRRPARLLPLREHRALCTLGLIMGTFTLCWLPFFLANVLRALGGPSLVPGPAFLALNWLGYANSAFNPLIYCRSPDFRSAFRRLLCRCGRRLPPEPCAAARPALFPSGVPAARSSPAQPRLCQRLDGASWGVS
row,IA(β3),Compound
1,1,"O=c1[nH]c2cccc(OC[C@@H](O)CNC3CCN(c4ccc(NS(=O)(=O)c5ccc(Cl)cc5)cc4)CC3)c2[nH]1 [Example 331, 4-Chloro-N-{4-[4-({(2S)-2-hydroxy-3-[(2-oxo-2,3-dihydro-1H-benzimidazol-4-yl)oxy]propyl}amino)-1-piperidinyl]phenyl}benzenesulfonamide]"
2,1.1,"CCCCc1ccc(S(=O)(=O)Nc2ccc(N3CCC(NC[C@H](O)COc4cccc5[nH]c(=O)[nH]c45)CC3)cc2)cc1 [Example 332, 4-Butyl-N-{4-[4-({(2S)-2-hydroxy-3-[(2-oxo-2,3-dihydro-1H-benzimidazol-4-yl)oxy]propyl}amino)-1-piperidinyl]phenyl}benzenesulfonamide.]"
3,0.83,"O=c1[nH]c2cccc(OC[C@@H](O)CNC3CCN(c4ccc(NS(=O)(=O)c5cc(Cl)cc(Cl)c5)cc4)CC3)c2[nH]1 [Example 333, 3,5-Dichloro-N-{4-[4-({(2S)-2-hydroxy-3-[(2-oxo-2,3-dihydro-1H-benzimidazol-4-yl)oxy]propyl}amino)-1-piperidinyl]phenyl}benzenesulfonamide]"
4,0.91,"COc1ccc(OC)c(S(=O)(=O)Nc2ccc(N3CCC(NC[C@H](O)COc4cccc5[nH]c(=O)[nH]c45)CC3)cc2)c1 [Example 334, N-{4-[4-({(2S)-2-Hydroxy-3-[(2-oxo-2,3-dihydro-1H-benzimidazol-4-yl)oxy]propyl}-amino)-1-piperidinyl]phenyl}-2,5-dimethoxybenzenesulfonamide]"
5,0.98,"COc1ccc(OC)c(S(=O)(=O)Nc2ccc(N3CCC(NC[C@H](O)c4ccc(O)c(NS(C)(=O)=O)c4)CC3)cc2)c1 [Example 335, N-(4-{4-[((2R)-2-Hydroxy-2-{4-hydroxy-3-[(methylsulfonyl)amino]phenyl}ethyl)amino]-1-piperidinyl}phenyl)-2,5-dimethoxybenzenesulfonamide]"
6,0.72,COc1ccc(Br)cc1S(=O)(=O)N(c1ccc(N2CCC(NC[C@H](O)COc3cccc4[nH]c(=O)[nH]c34)CC2)cc1)S(=O)(=O)c1cc(Br)ccc1OC [Example 337]
7,1,"COc1ccc(Br)cc1S(=O)(=O)Nc1ccc(N2CCC(NC[C@H](O)COc3cccc4[nH]c(=O)[nH]c34)CC2)cc1 [Example 338, 5-Bromo-N-{4-[4-(f{(2S)-2-hydroxy-3-[(2-oxo-2,3-dihydro-1H-benzimidazol-4-yl)oxy]propyl}amino)-1-piperidinyl]phenyl}-2-methoxybenzenesulfonamide]"
8,1,CCCCS(=O)(=O)N(CC(=O)OCc1ccccc1)c1ccc(N2CCC(NC[C@H](O)c3ccc(O)c(NS(C)(=O)=O)c3)CC2)cc1 [Example 342]
9,1,CCCCS(=O)(=O)N(CC(=O)OCC)c1ccc(N2CCC(NC[C@H](O)c3ccc(O)c(NS(C)(=O)=O)c3)CC2)cc1 [Example 345]
10,0.76,"O=S(=O)(Nc1ccc(N2CCC(NC[C@H](O)COc3ccccc3)CC2)cc1)c1ccc(Oc2ncc(C(F)(F)F)cc2Cl)cc1 [Example 346, 4-{[3-Chloro-5-(trifluoromethyl)-2-pyridinyl]oxy}-N-[4-(4-{[(2S)-2-hydroxy-3-phenoxypropyl]amino}-1-piperidinyl)phenyl]benzenesulfonamide]"
11,0.91,"O=C(NCc1ccc(S(=O)(=O)Nc2ccc(N3CCC(NC[C@H](O)COc4cccc5[nH]c(=O)[nH]c45)CC3)cc2)s1)c1ccccc1 [Example 347, N-{[5-({4-[4-({(2S)-2-Hydroxy-3-[(2-oxo-2,3-dihydro-1H-benzimidazol-4-yl)oxy]propyl}amino)-1-piperidinyl]anilino}sulfonyl)-2-thienyl]methyl}benzamide]"
12,0.63,O=C(NCc1ccc(S(=O)(=O)Nc2ccc(N3CCC(NC[C@H](O)COc4ccccc4)CC3)cc2)s1)c1ccccc1 [Example 348]
13,1.26,"O=C(NCc1ccc(S(=O)(=O)Nc2ccc(N3CCC(NCC(O)c4cccc(O)c4)CC3)cc2)s1)c1ccccc1 (centres unmarked) [Example 349, N-[(5-{[4-(4-{[2-Hydroxy-2-(3-hydroxyphenyl)ethyl]amino}-1-piperidinyl)-anilino]sulfonyl}-2-thienyl)methyl]benzamide]"
14,1.26,"O=c1[nH]c2cccc(OC[C@@H](O)CNC3CCN(c4ccc(NS(=O)(=O)c5ccc(Oc6ncc(C(F)(F)F)cc6Cl)cc5)cc4)CC3)c2[nH]1 [Example 350, 4-{[3-Chloro-5-(trifluoromethyl)-2-pyridinyl]oxy}-N-{4-[4-({(2S)-2-hydroxy-3-[(2-oxo-2,3-dihydro-1H-benzimidazol-4-yl)oxy]propyl}amino)-1-piperidinyl]phenyl}-benzenesulfonamide]"
15,0.76,O=S(=O)(Nc1ccc(N2CCC(NCC(O)c3cccc(O)c3)CC2)cc1)c1ccc(Oc2ncc(C(F)(F)F)cc2Cl)cc1 (centres unmarked) [Example 351]
16,1.02,"O=c1[nH]c2cccc(OC[C@@H](O)CNC3CCN(c4ccc(NS(=O)(=O)c5cc(Cl)c(Oc6ccc([N+](=O)[O-])cc6Cl)c(Cl)c5)cc4)CC3)c2[nH]1 [Example 352, 3,5-Dichloro-4-(2-chloro-4-nitrophenoxy)-N-{4-[4-({(2S)-2-hydroxy-3-[(2-oxo-2,3-dihydro-1H-benzimidazol-4-yl)oxy]propyl}amino)-1-piperidinyl]phenyl}-benzenesulfonamide]"
17,0.97,"O=[N+]([O-])c1ccc(Oc2c(Cl)cc(S(=O)(=O)Nc3ccc(N4CCC(NC[C@H](O)COc5ccccc5)CC4)cc3)cc2Cl)c(Cl)c1 [Example 353, 3,5-Dichloro-4-(2-chloro-4-nitrophenoxy)-N-[4-(4-{[(2S)-2-hydroxy-3-phenoxypropyl]amino}-1-piperidinyl)phenyl]benzenesulfonamide]"
18,0.73,"O=[N+]([O-])c1ccc(Oc2c(Cl)cc(S(=O)(=O)Nc3ccc(N4CCC(NCC(O)c5cccc(O)c5)CC4)cc3)cc2Cl)c(Cl)c1 (centres unmarked) [Example 354, 3,5-Dichloro-4-(2-chloro-4-nitrophenoxy)-N-[4-(4-{[2-hydroxy-2-(3-hydroxyphenyl)-ethyl]amino}-1-piperidinyl)phenyl]benzenesulfonamide]"
19,0.87,"O=S(=O)(Nc1ccc(N2CCC(NC[C@@H](O)c3cccc(O)c3)CC2)cc1)c1cccs1 [Example 357, N-[4-(4-{[(2S)-2-Hydroxy-2-(3-hydroxyphenyl)ethyl]amino}-1-piperidinyl)phenyl]-2-thiophenesulfonamide]"
20,0.91,"COc1ccc(S(=O)(=O)Nc2ccc(N3CCC(NC[C@H](O)COc4cccc5[nH]c(=O)[nH]c45)CC3)cc2)cc1OC [Example 359, N-{4-[4-({(2S)-2-Hydroxy-3-[(2-oxo-2,3-dihydro-1H-benzimidazol-4-yl)oxy]-propyl}amino)-1-piperidinyl]phenyl}-3,4-dimethoxybenzenesulfonamide]"
21,0.54,"COc1ccc(S(=O)(=O)Nc2ccc(N3CCC(NC[C@H](O)COc4ccccc4)CC3)cc2)cc1OC [Example 360, N-[4-(4-{[(2S)-2-Hydroxy-3-phenoxypropyl]amino}-1-piperidinyl)phenyl]-3,4-dimethoxybenzenesulfonamide]"
22,0.55,"COc1ccc(S(=O)(=O)Nc2ccc(N3CCC(NCC(O)c4cccc(O)c4)CC3)cc2)cc1OC (centres unmarked) [Example 361, N-[4-(4-{[2-Hydroxy-2-(3-hydroxyphenyl)ethyl]amino}-1-piperidinyl)phenyl]-3,4-dimethoxybenzenesulfonamide]"
23,0.9,"O=c1[nH]c2cccc(OC[C@@H](O)CNC3CCN(c4ccc(NS(=O)(=O)c5cccs5)cc4)CC3)c2[nH]1 [Example 362, N-{4-[4-({(2S)-2-Hydroxy-3-[(2-oxo-2,3-dihydro-1H-benzimidazol-4-yl)oxy]propyl}-amino)-1-piperidinyl]phenyl}-2-thiophenesulfonamide]"
24,0.91,"CCOC(=O)CC(=O)Nc1ccc(N2CCC(NC[C@H](O)c3ccc(O)c(NS(C)(=O)=O)c3)CC2)cc1 [Example 371, Ethyl 3-(4-{4-[((2R)-2-hydroxy-2-{4-hydroxy-3-[(methylsulfonyl)amino]phenyl}-ethyl)-amino]-1-piperidinyl}anilino)-3-oxopropanoate]"
25,1,"CS(=O)(=O)Nc1cc([C@@H](O)CNC2CCN(c3ccc(NC(=O)CC(=O)O)cc3)CC2)ccc1O [Example 372, 3-(4-{4-[((2R)-2-Hydroxy-2-{4-hydroxy-3-[(methylsulfonyl)amino]phenyl}ethyl)amino]-1-piperidinyl}anilino)-3-oxopropanoic acid]"
26,0.66,"CCOC(=O)CNC(=O)Nc1ccc(N2CCC(NC[C@H](O)c3ccc(O)c(NS(C)(=O)=O)c3)CC2)cc1 [Example 377, Ethyl {[(4-{4-[((2R)-2-hydroxy-2-{4-hydroxy-3-[(methylsulfonyl)amino]phenyl}-ethyl)amino]-1-piperidinyl}anilino)carbonyl]amino}acetate]"
27,0.94,"CS(=O)(=O)Nc1cc([C@@H](O)CNC2CCN(c3ccc(NC(=O)NCC(=O)O)cc3)CC2)ccc1O [Example 378, {[(4-{4-[((2R)-2-Hydroxy-2-{4-hydroxy-3-[(methylsulfonyl)amino]phenyl}ethyl)amino]-1-piperidinyl}anilino)carbonyl]amino}acetic acid]"
28,0.64,"O=C(CCl)Nc1ccc(N2CCC(NC[C@H](O)COc3cccc4[nH]c(=O)[nH]c34)CC2)cc1 [Example 382, 2-Chloro-N-{4-[4-({(2S)-2-hydroxy-3-[(2-oxo-2,3-dihydro-1H-benzimidazol-4-yl)oxy]propyl}amino)-1-piperidinyl]phenyl}acetamide]"

row,Compound,IA(β3)
1,"CCCCOc1ccc(S(=O)(=O)Nc2ccc(N3CCC(NC[C@H](O)COc4cccc5[nH]c(=O)[nH]c45)CC3)cc2)cc1 [Example 358, 4-Butoxy-N-{4-[4-({(2S)-2-hydroxy-3-[(2-oxo-2,3-dihydro-1H-benzimidazol-4-yl)oxy]propyl}amino)-1-piperidinyl]phenyl}benzenesulfonamide]",1.1
